Experimental data reported in the NIST ThermoML archive (doi:10.1021/je500239t).
± gives the expanded uncertainty stated by the source.

Conditions: Liquid, isochoric method

CCCCCCn1cc[n+](C)c1.F[P-](F)(F)(F)(F)F [1-hexyl-3-methylimidazolium hexafluorophosphate]
Conditions	mass density [kg/m3]
220.78 K, 20693 kPa	1364.2 ± 1.8
221.31 K, 2190 kPa	1355.99 ± 1.8
226.3 K, 10334 kPa	1355.5 ± 1.8
226.34 K, 30167 kPa	1363.64 ± 1.8
232.2 K, 39852 kPa	1363.05 ± 1.8
232.44 K, 20355 kPa	1354.89 ± 1.8
232.75 K, 1468.4 kPa	1346.06 ± 1.8
238.32 K, 29843 kPa	1354.3 ± 1.8
238.38 K, 10065 kPa	1345.53 ± 1.8
239.11 K, 50924 kPa	1362.36 ± 1.8
244.53 K, 39522 kPa	1353.69 ± 1.8
244.58 K, 20078 kPa	1345.49 ± 1.8
244.91 K, 1121.9 kPa	1336.19 ± 1.8
250.82 K, 49360 kPa	1353.07 ± 1.8
251.03 K, 10204 kPa	1335.6 ± 1.8
251.05 K, 29930 kPa	1344.61 ± 1.8
257.33 K, 19488 kPa	1335.01 ± 1.8
257.74 K, 40140 kPa	1344.21 ± 1.8
258.25 K, 1630.4 kPa	1325.22 ± 1.8
264.3 K, 29775 kPa	1334.34 ± 1.8
264.31 K, 10326 kPa	1324.65 ± 1.8
264.31 K, 29966 kPa	1334.29 ± 1.8
264.82 K, 50312 kPa	1343.28 ± 1.8
271.12 K, 19945 kPa	1324.01 ± 1.8
271.72 K, 40378 kPa	1333.63 ± 1.8
272.25 K, 1996.3 kPa	1314.31 ± 1.8
277.88 K, 100 kPa	1308.85 ± 0.56
278.37 K, 29980 kPa	1323.33 ± 1.8
278.39 K, 10230 kPa	1313.74 ± 1.8
278.81 K, 49975 kPa	1332.93 ± 1.8
283.3 K, 100 kPa	1304.78 ± 0.56
285.6 K, 39832 kPa	1322.66 ± 1.8
285.88 K, 20217 kPa	1313.06 ± 1.8
285.98 K, 1730.8 kPa	1302.58 ± 1.8
288.37 K, 100 kPa	1300.82 ± 0.56
293.01 K, 100 kPa	1296.84 ± 0.56
293.33 K, 11116 kPa	1301.92 ± 1.8
293.38 K, 30030 kPa	1312.37 ± 1.8
294.3 K, 49916 kPa	1321.89 ± 1.8
298.16 K, 127.6 kPa	1293.38 ± 1.8
298.21 K, 100 kPa	1293.14 ± 0.56
300.72 K, 20089 kPa	1301.27 ± 1.8
301.06 K, 39951 kPa	1311.66 ± 1.8
301.51 K, 940.4 kPa	1290.78 ± 1.8
303 K, 100 kPa	1289.6 ± 0.55
308.05 K, 100 kPa	1285.34 ± 0.55
308.93 K, 10526 kPa	1290.11 ± 1.8
308.93 K, 30141 kPa	1300.53 ± 1.8
309.51 K, 50444 kPa	1310.89 ± 1.8
313.17 K, 100 kPa	1280.96 ± 0.55
316.34 K, 18783 kPa	1289.47 ± 1.8
317.93 K, 100 kPa	1277.34 ± 0.55
318.19 K, 41900 kPa	1299.68 ± 1.8
318.48 K, 1643.7 kPa	1277.43 ± 1.8
323.16 K, 100 kPa	1273.19 ± 0.55
325.52 K, 47639 kPa	1299.1 ± 1.8
325.7 K, 29844 kPa	1288.64 ± 1.8
325.86 K, 10002 kPa	1276.79 ± 1.8
328.09 K, 100 kPa	1269.64 ± 0.55
333.28 K, 100 kPa	1265.48 ± 0.55
334.93 K, 20139 kPa	1276.01 ± 1.8
336.11 K, 41946 kPa	1287.71 ± 1.8
336.59 K, 1430 kPa	1262.76 ± 1.8
338.63 K, 100 kPa	1261.76 ± 0.55
343.3 K, 100 kPa	1257.98 ± 0.55
344.61 K, 1230.6 kPa	1256.88 ± 1.8
345.06 K, 10024 kPa	1262.06 ± 1.8
345.06 K, 30866 kPa	1275.14 ± 1.8
347.93 K, 50753 kPa	1286.78 ± 1.8
348.55 K, 100 kPa	1254.47 ± 0.55
353.15 K, 18882 kPa	1261.36 ± 1.8
353.15 K, 40148 kPa	1274.42 ± 1.8
353.16 K, 10034 kPa	1256.16 ± 1.8
353.61 K, 100 kPa	1250.75 ± 0.55
358.19 K, 100 kPa	1247.22 ± 0.55
364.46 K, 100 kPa	1242.36 ± 0.55
